For 15 compounds, T/C results are on record in PubChem BioAssay AID220 (DTP/NCI, 2004).

Where “and” joins values, the source holds several entries; their conditions need not be identical. Equal values may be shown once. Inconclusive results are not listed.

This assay relates to CD8F1 mice, subcutaneous mammary adenocarcinoma, T/C%. Nature of the assay: NCI In Vivo Anticancer Drug Screen. Data for tumor model Mammary Adenocarcinoma CD8F1 (subcutaneous) in CD8F1. The conditions noted are these: higher = larger tumour. How it is done: The antitumor activity of compounds was measured in mice bearing transplantable tumors. Survival or tumor size were measured and the results are expressed as the measurement made in the treated group (T) divided by the measurement made in the vehicle treated control group (C). The tumor model used in this assay is Mammary Adenocarcinoma CD8F1 (subcutaneous) in CD8F1

The mark [1] stands for this setting: endpoint: median tumor weight (est.), dose: 12.5 mg/kg/injection, schedule: Q07DX005 (ip), vehicle: saline with Tween-80.
The mark [2] stands for this setting: endpoint: median tumor weight (est.), dose: 50.0 mg/kg/injection, schedule: Q07DX005 (ip), vehicle: saline with Tween-80.

Consider `Nc1nc2n[nH]nc2c(=O)[nH]1`, for which the T/C was 73 % of control (endpoint: median tumor weight change, dose: 250.0 mg/kg/injection, schedule: Q01DX001 (ip), vehicle: suspension in saline) and 45 % of control (endpoint: median tumor weight change, dose: 500.0 mg/kg/injection, schedule: Q01DX001 (ip), vehicle: suspension in saline).
For the compound `COC1=C(C)C(=O)C2=C(C1=O)C1C3CC4=C(C(=O)C(OC)=C(C)C4=O)C(CNC(=O)C(C)=O)N3C(C#N)C(C2)N1C` (stereo unspecified), the T/C reads like this: (endpoint: median tumor weight change, dose: 0.62 mg/kg/injection, schedule: Q01DX001 (ip), vehicle: Klucel (hydroxypropylcellulose) (HPC)) 114 % of control; (endpoint: median tumor weight change, dose: 0.63 mg/kg/injection, schedule: Q01DX001 (ip), vehicle: Klucel (hydroxypropylcellulose) (HPC)) 119 % of control; (endpoint: median tumor weight change, dose: 1.2 mg/kg/injection, schedule: Q01DX001 (ip), vehicle: Klucel (hydroxypropylcellulose) (HPC)) 109 % of control; (endpoint: median tumor weight change, dose: 1.25 mg/kg/injection, schedule: Q01DX001 (ip), vehicle: Klucel (hydroxypropylcellulose) (HPC)) 96 % of control; (endpoint: median tumor weight change, dose: 2.5 mg/kg/injection, schedule: Q01DX001 (ip), vehicle: Klucel (hydroxypropylcellulose) (HPC)) 98 % of control and 114 % of control.
Consider `O=C(Nc1ccccc1)c1c(O)[nH]c(=S)[nH]c1=O`, for which the T/C reads like this: (endpoint: median tumor weight change, dose: 56.0 mg/kg/injection, schedule: Q01DX001 (ip), vehicle: saline with Tween-80) 61 % of control; (endpoint: median tumor weight change, dose: 112.0 mg/kg/injection, schedule: Q01DX001 (ip), vehicle: saline with Tween-80) 80 % of control.
In the case of `CCN(CC)CCN1C(=O)C2C3C=CC(C2C1=O)C1C2C(=O)N(CCN(CC)CC)C(=O)C2C31` (stereo unspecified), the T/C reads like this: (endpoint: median tumor weight change, dose: 15.62 mg/kg/injection, schedule: Q01DX001 (ip), vehicle: water) 106 % of control; (endpoint: median tumor weight change, dose: 31.25 mg/kg/injection, schedule: Q01DX001 (ip), vehicle: water) 111 % of control; (endpoint: median tumor weight change, dose: 62.5 mg/kg/injection, schedule: Q01DX001 (ip), vehicle: water) 88 % of control; (endpoint: median tumor weight change, dose: 125.0 mg/kg/injection, schedule: Q01DX001 (ip), vehicle: water) 92 % of control.
Regarding `Cc1ncc([N+](=O)[O-])n1CCSC(N)=O`, the T/C runs as follows: under setting [1], 124 % of control and 99 % of control; under setting [2], 123 % of control; (endpoint: median tumor weight (est.), dose: 100.0 mg/kg/injection, schedule: Q07DX005 (ip), vehicle: saline with Tween-80) 96 % of control; (endpoint: median tumor weight (est.), dose: 400.0 mg/kg/injection, schedule: Q07DX005 (ip), vehicle: saline with Tween-80) 66 % of control.
In the case of `NC(N)=NOCC[C@@H](N)C(=O)O`, the T/C was 83 % of control (endpoint: median tumor weight change, dose: 250.0 mg/kg/injection, schedule: Q01DX001 (ip), vehicle: saline); 72 % of control (endpoint: median tumor weight change, dose: 500.0 mg/kg/injection, schedule: Q01DX001 (ip), vehicle: saline); 75 % of control (endpoint: median tumor weight change, dose: 1000.0 mg/kg/injection, schedule: Q01DX001 (ip), vehicle: saline).
Turning to `CNC(=O)n1c(N)nc(-c2ccccc2)c1-c1ccccc1`, the T/C by setting is: (endpoint: median tumor weight change, dose: 31.25 mg/kg/injection, schedule: Q01DX001 (ip), vehicle: saline with Tween-80) 93 % of control; (endpoint: median tumor weight change, dose: 62.5 mg/kg/injection, schedule: Q01DX001 (ip), vehicle: saline with Tween-80) 92 % of control; (endpoint: median tumor weight change, dose: 125.0 mg/kg/injection, schedule: Q01DX001 (ip), vehicle: saline with Tween-80) 79 % of control.
As for `COCC(O)Cn1ccnc1[N+](=O)[O-]` (stereo unspecified), the T/C was 101 % of control (endpoint: median tumor weight (est.), dose: 8.0 mg/kg/injection, schedule: Q07DX005 (ip), vehicle: Klucel (hydroxypropylcellulose) (HPC)); 183 % of control (endpoint: median tumor weight (est.), dose: 8.0 mg/kg/injection, schedule: Q07DX005 (ip), vehicle: saline); 124 % of control (endpoint: median tumor weight (est.), dose: 16.0 mg/kg/injection, schedule: Q07DX005 (ip), vehicle: Klucel (hydroxypropylcellulose) (HPC)); 256 % of control (endpoint: median tumor weight (est.), dose: 16.0 mg/kg/injection, schedule: Q07DX005 (ip), vehicle: saline); 256 % of control (endpoint: median tumor weight (est.), dose: 32.0 mg/kg/injection, schedule: Q07DX005 (ip), vehicle: saline); 74 % of control (endpoint: median tumor weight (est.), dose: 64.0 mg/kg/injection, schedule: Q07DX005 (ip), vehicle: Klucel (hydroxypropylcellulose) (HPC)). Further, the T/C (endpoint: median tumor weight (est.), dose: 64.0 mg/kg/injection, schedule: Q07DX005 (ip), vehicle: saline) is 249 % of control; the T/C (endpoint: median tumor weight (est.), dose: 128.0 mg/kg/injection, schedule: Q07DX005 (ip), vehicle: Klucel (hydroxypropylcellulose) (HPC)) is 88 % of control; the T/C (endpoint: median tumor weight (est.), dose: 128.0 mg/kg/injection, schedule: Q07DX005 (ip), vehicle: saline) was 488 % of control; the T/C (endpoint: median tumor weight (est.), dose: 256.0 mg/kg/injection, schedule: Q07DX005 (ip), vehicle: Klucel (hydroxypropylcellulose) (HPC)) is 121 % of control; the T/C (endpoint: median tumor weight (est.), dose: 256.0 mg/kg/injection, schedule: Q07DX005 (ip), vehicle: saline) is 108 % of control.
Consider `CCCCCC[Se][Se]CCCCCC`, for which the T/C reads like this: (endpoint: median tumor weight change, dose: 31.25 mg/kg/injection, schedule: Q01DX001 (ip), vehicle: Klucel (hydroxypropylcellulose) (HPC)) 116 % of control; (endpoint: median tumor weight change, dose: 62.5 mg/kg/injection, schedule: Q01DX001 (ip), vehicle: Klucel (hydroxypropylcellulose) (HPC)) 159 % of control.
For `CSc1ccc2c(c1)C(N1CCN(C)CC1)Cc1ccccc1S2` (stereo unspecified), the T/C is 104 % of control (endpoint: median tumor weight (est.), dose: 3.12 mg/kg/injection, schedule: Q07DX005 (ip), vehicle: saline with Tween-80); 95 % of control (endpoint: median tumor weight (est.), dose: 6.25 mg/kg/injection, schedule: Q07DX005 (ip), vehicle: saline with Tween-80); 63 % of control under setting [1]; 53 % of control (endpoint: median tumor weight (est.), dose: 25.0 mg/kg/injection, schedule: Q07DX005 (ip), vehicle: saline with Tween-80); 104 % of control under setting [2].
As to `CC(=O)[O][Pb]([O]C(C)=O)([c]1ccccc1)[c]1ccccc1`, the T/C (endpoint: median tumor weight (est.), dose: 12.5 mg/kg/injection, schedule: Q07DX005 (ip), vehicle: Klucel (hydroxypropylcellulose) (HPC)) was 124 % of control; the T/C (endpoint: median tumor weight (est.), dose: 25.0 mg/kg/injection, schedule: Q07DX005 (ip), vehicle: Klucel (hydroxypropylcellulose) (HPC)) is 80 % of control; the T/C (endpoint: median tumor weight (est.), dose: 50.0 mg/kg/injection, schedule: Q07DX005 (ip), vehicle: Klucel (hydroxypropylcellulose) (HPC)) is 65 % of control; the T/C (endpoint: median tumor weight (est.), dose: 100.0 mg/kg/injection, schedule: Q07DX005 (ip), vehicle: Klucel (hydroxypropylcellulose) (HPC)) was 86 % of control; the T/C (endpoint: median tumor weight (est.), dose: 200.0 mg/kg/injection, schedule: Q07DX005 (ip), vehicle: Klucel (hydroxypropylcellulose) (HPC)) is 75 % of control; the T/C (endpoint: median tumor weight (est.), dose: 400.0 mg/kg/injection, schedule: Q07DX005 (ip), vehicle: Klucel (hydroxypropylcellulose) (HPC)) is 29 % of control.
As for `C=C1C(C)C2C(Cc3ccccc3)NC(=O)C23C(OC(C)=O)/C=C/C(C)(O)CC(C)C/C=C/C3C1O` (stereo unspecified), the T/C (endpoint: median tumor weight change, dose: 7.5 mg/kg/injection, schedule: Q01DX001 (ip), vehicle: Klucel (hydroxypropylcellulose) (HPC)) is 61 % of control and 66 % of control.
Take `O=C(NP(=O)(N1CC1)N1CC1)c1cc(I)ccc1I`: the T/C (endpoint: median tumor weight (est.), dose: 16.0 mg/kg/injection, schedule: Q07DX005 (ip), vehicle: saline with Tween-80) is 68 % of control; the T/C (endpoint: median tumor weight (est.), dose: 32.0 mg/kg/injection, schedule: Q07DX005 (ip), vehicle: saline with Tween-80) was 77 % of control; the T/C (endpoint: median tumor weight (est.), dose: 64.0 mg/kg/injection, schedule: Q07DX005 (ip), vehicle: saline with Tween-80) was 49 % of control; the T/C (endpoint: median tumor weight (est.), dose: 128.0 mg/kg/injection, schedule: Q07DX005 (ip), vehicle: saline with Tween-80) was 6 % of control.
For `CCC12C[N+]3([O-])CCc4c([nH]c5ccccc45)C(C(=O)OC)(c4cc5c(cc4OC)N(C)C4C(O)(C(=O)OC)C(OC(C)=O)C6(CC)C=CCN7CCC54C76)CC(C3)C1O2` (stereo unspecified), the T/C reads like this: (endpoint: median tumor weight change, dose: 6.25 mg/kg/injection, schedule: Q01DX001 (ip), vehicle: water) 199 % of control; (endpoint: median tumor weight change, dose: 12.5 mg/kg/injection, schedule: Q01DX001 (ip), vehicle: water) 73 % of control; (endpoint: median tumor weight change, dose: 25.0 mg/kg/injection, schedule: Q01DX001 (ip), vehicle: water) 87 % of control; (endpoint: median tumor weight change, dose: 50.0 mg/kg/injection, schedule: Q01DX001 (ip), vehicle: water) 92 % of control; (endpoint: median tumor weight change, dose: 100.0 mg/kg/injection, schedule: Q01DX001 (ip), vehicle: water) 81 % of control.
For the compound `C=C(C)[C@H]1CN[C@H](C(=O)O)[C@H]1CC(=O)O`, the T/C (endpoint: median tumor weight change, dose: 3.12 mg/kg/injection, schedule: Q01DX001 (ip), vehicle: saline) is 99 % of control; the T/C (endpoint: median tumor weight change, dose: 6.25 mg/kg/injection, schedule: Q01DX001 (ip), vehicle: saline) was 77 % of control; the T/C (endpoint: median tumor weight change, dose: 12.5 mg/kg/injection, schedule: Q01DX001 (ip), vehicle: saline) is 77 % of control; the T/C (endpoint: median tumor weight change, dose: 25.0 mg/kg/injection, schedule: Q01DX001 (ip), vehicle: saline) is 73 % of control.
